Experiments:
CCR6 = target: T1, CCR6 (Homo sapiens, UniProt P51684); experiment: NanoBRET screen HiBiT-CCR6 in HEK293; assay type: binding
T1 construct: purchased Promega (in-house HiBiT-GPCR construct library, NanoBRET)
T1 sequence (P51684 1-374): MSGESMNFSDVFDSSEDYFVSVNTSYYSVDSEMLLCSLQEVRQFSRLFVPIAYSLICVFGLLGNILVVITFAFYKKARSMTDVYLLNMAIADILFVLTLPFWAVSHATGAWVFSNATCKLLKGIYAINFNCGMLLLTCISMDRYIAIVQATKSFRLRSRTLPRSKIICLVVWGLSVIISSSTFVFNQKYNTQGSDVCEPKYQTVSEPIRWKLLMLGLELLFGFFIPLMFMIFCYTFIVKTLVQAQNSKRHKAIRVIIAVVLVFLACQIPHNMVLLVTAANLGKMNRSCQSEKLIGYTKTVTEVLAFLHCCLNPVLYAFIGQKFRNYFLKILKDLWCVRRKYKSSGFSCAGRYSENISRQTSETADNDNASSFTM
Protocol: (§1) Each tracer candidate was screened across the entire library of HiBiT-GPCR constructs using NanoBRET as the detection modality. As depicted in Figure 4A, the specificity of interactions was evaluated through decrease in BRET due to competitive displacement of a bound tracer by excess parental compound. Each tracer was analyzed for binding to each HiBiT-GPCR fusion in the absence and in the presence of competing parental compound. Briefly, HEK293 cells were transfected with HiBiT-GPCR constructs diluted into promoterless DNA to reduce expression and maximize translocation to the cell surface. Each tracer candidate was then screened at concentrations of 1 μM and 0.1 μM across cells expressing these fusions. Cells were treated for 1.5 h with tracer either alone or in the presence of 20 μM competing parental compound (i.e., control). BRET was measured upon addition of purified LgBiT and subsequent complementation with HiBiT genetically fused to a GPCR. The specificity of interactions was assessed through a decrease in BRET signal due to competitive displacement of the bound tracer. To further gauge the robustness of these interactions, the fold response over the control (i.e., BRETtracer/BRETcontrol) was calculated. We chose a 1.5-fold response, which translates to ≥7-fold signal over noise as the minimal threshold required to score an interaction as positive. […]. Below we highlight the screening results obtained for our exemplary fluorescent tracers based on Clozapine, Amitriptyline and AZD1283.
(§2) HiBiT-GPCR DNA constructs were diluted in 10 mM Tris pH 8 to a final concentration of 0.01 μg/μL, arrayed in 96-well plates and stored at −20 °C. For transfection, HEK293 cells were suspended in Opti-MEM (without phenol red) supplemented with 2% fetal bovine serum (Seradigm) and 100 units/mL penicillin–streptomycin (Gibco) at a final concentration of 220,000 cells/mL and dispensed into white 96-well plates at 90 μL/well. Subsequent transfections and screens were carried using an Agilent Bravo Automated Liquid Handling Platform. First, the 96-well HiBiT DNA arrays were diluted 25-fold in Opti-MEM (without serum or phenol red) to a final concentration of 0.0004 μg/μL and 20 μL of the diluted DNAs were transferred into new 96-well plates. Next, promoterless carrier DNA (1 μg/μL) was diluted 25-fold (0.04 μg/μL) and then dispensed into the diluted arrays at 20 μL/well. Following brief mixing, Viafect transfection reagent (Promega) diluted 16-fold into Opti-MEM was dispensed into the plates at 40 μL/well. After mixing by pipetting, plates were incubated for 10 min on the pipetting station deck. The DNA-transfection reagent complexes were then added to plates containing cells. To facilitate the screen, 10 μL of DNA-transfection reagent complexes were added in duplicates to the top 4 and bottom 4 rows, resulting in two identical 48-well arrays per plate. Plates with transfected cells were incubated for 18–20 h at 37 °C/5% CO2. A screen of each tracer across the entire library using two different concentrations requires duplicate plates of transfected cells. Depending on the number of tracers being screened, transfections can be scaled up using the same ratios. The next day, for each tracer, four 20× screening solutions in tracer dilution buffer (Promega) were prepared: two duplicates at final concentration of 20 μM and two duplicates at a final concentration of 2 μM. A competing unmodified compound was added to one of each duplicate at a final concentration of 400 μM. The four resulting solutions were diluted 4-fold in Opti-MEM without serum or phenol red to generate 5× solutions (5 µM and 0.5 µM tracer +/− 100 μM competing compound). To screen the library, a BioTek MultiFlo FX liquid dispenser was used to dispense 22.5 µL of tracer solution to the top 4 rows and 22.5 µL tracer + competing compound solution to the 4 bottom rows. Plates were briefly mixed on an orbital shaker and incubated for 1.5 h at room temperature. […]

GRM3 = target: T2, GRM3 (Homo sapiens, UniProt Q14832); experiment: NanoBRET screen HiBiT-GRM3 in HEK293; assay type: binding
T2 construct: purchased Promega (in-house HiBiT-GPCR construct library, NanoBRET)
T2 sequence (Q14832 23-879): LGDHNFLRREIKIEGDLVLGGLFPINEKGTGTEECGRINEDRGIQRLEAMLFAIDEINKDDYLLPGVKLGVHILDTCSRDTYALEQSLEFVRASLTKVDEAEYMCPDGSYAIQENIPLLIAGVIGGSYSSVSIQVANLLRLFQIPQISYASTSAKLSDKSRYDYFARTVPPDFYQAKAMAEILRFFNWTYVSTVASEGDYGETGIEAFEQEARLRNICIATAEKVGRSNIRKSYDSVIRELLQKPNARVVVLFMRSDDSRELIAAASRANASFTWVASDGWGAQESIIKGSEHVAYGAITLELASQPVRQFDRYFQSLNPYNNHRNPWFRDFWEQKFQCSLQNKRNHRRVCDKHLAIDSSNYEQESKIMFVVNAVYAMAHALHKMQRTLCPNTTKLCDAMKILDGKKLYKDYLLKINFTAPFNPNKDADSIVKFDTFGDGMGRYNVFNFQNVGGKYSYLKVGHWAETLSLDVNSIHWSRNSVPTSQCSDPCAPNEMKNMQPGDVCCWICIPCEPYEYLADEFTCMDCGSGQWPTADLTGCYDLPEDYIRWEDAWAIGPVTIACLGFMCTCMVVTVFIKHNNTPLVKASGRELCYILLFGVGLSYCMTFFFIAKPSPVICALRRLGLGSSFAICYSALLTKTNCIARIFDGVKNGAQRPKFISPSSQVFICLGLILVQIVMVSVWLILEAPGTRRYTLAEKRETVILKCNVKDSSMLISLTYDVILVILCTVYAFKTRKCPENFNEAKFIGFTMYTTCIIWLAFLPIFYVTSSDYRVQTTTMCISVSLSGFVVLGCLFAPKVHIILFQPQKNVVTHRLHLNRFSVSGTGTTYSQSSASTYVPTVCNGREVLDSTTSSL
Protocol: as §1, §2

## COc1ccc2c(n1)c(CCNC(C)=O)cn2CCNC(=O)CCc1ccc2n1[B-](F)(F)[N+]1=C(c3ccc[nH]3)C=CC1=C2 [Azamelatonin-1-NB590]
CCR6; 0.1μM tracer
  NanoBRET Fold Response: 0.86
CCR6; 1μM tracer
  NanoBRET Fold Response: 0.98
GRM3; 0.1μM tracer
  NanoBRET Fold Response: 0.95
GRM3; 1μM tracer
  NanoBRET Fold Response: 1.02

## CC(C)N(CC[C@H](c1ccccc1)c1cc(CCNC(=O)c2ccc(CNC(=O)CCc3ccc4n3[B-](F)(F)[N+]3=C(c5ccc[nH]5)C=CC3=C4)cc2)ccc1O)C(C)C [Tolterodine-BZ-NB590]
CCR6; CCR6, tracer 0.1μM
  NanoBRET Fold Response: 1.05
CCR6; CCR6, tracer 1μM
  NanoBRET Fold Response: 1.03
GRM3; GRM3, tracer 0.1μM
  NanoBRET Fold Response: 0.99
GRM3; GRM3, tracer 1μM
  NanoBRET Fold Response: 1.06

## O=C(CCc1ccc2n1[B-](F)(F)[N+]1=C(c3ccc[nH]3)C=CC1=C2)NCCOCCOCCNC(=O)OCCOCCN1CCN(C2=Nc3ccccc3Sc3ccccc32)CC1 [Quetiapine-a-2-NB590]
CCR6; CCR6, tracer 0.1μM
  NanoBRET Fold Response: 1.05
CCR6; CCR6, tracer 1μM
  NanoBRET Fold Response: 0.95
GRM3; GRM3, tracer 0.1μM
  NanoBRET Fold Response: 1.08
GRM3; GRM3, tracer 1μM
  NanoBRET Fold Response: 1.09

## Cc1cc2c(s1)Nc1ccccc1N=C2N1CCN(CCCNC(=O)CCOCCOCCOCCOCCNC(=O)CCc2ccc3n2[B-](F)(F)[N+]2=C(c4ccc[nH]4)C=CC2=C3)CC1 [Olanzapine-a-2-NB590]
CCR6; CCR6, tracer 0.1μM
  NanoBRET Fold Response: 1.00
CCR6; CCR6, tracer 1μM
  NanoBRET Fold Response: 1.21
GRM3; GRM3, tracer 0.1μM
  NanoBRET Fold Response: 1.02
GRM3; GRM3, tracer 1μM
  NanoBRET Fold Response: 1.02

## O=C(CCc1ccc2n1[B-](F)(F)[N+]1=C(c3ccc[nH]3)C=CC1=C2)NCc1ccc(C(=O)NCCOCCOCCNCC(O)COc2cccc3ccccc23)cc1 (centres unmarked) [Propranolol-3-NB590]
CCR6; CCR6, 0.1μM
  NanoBRET Fold Response: 0.95
CCR6; CCR6, 1μM
  NanoBRET Fold Response: 1.02
GRM3; GRM3, 0.1μM
  NanoBRET Fold Response: 1.02
GRM3; GRM3, 1μM
  NanoBRET Fold Response: 0.95

## CN1CCN(C2=Nc3cc(Cl)ccc3N(CC(=O)NCCOCCOCCOCCOCCNC(=O)CCc3ccc4n3[B-](F)(F)[N+]3=C(c5ccc[nH]5)C=CC3=C4)c3ccccc32)CC1 [Clozapine-c-2-NB590]
CCR6; CCR6, 0.1μM tracer
  NanoBRET Fold Response: 0.99
CCR6; CCR6, 1μM tracer
  NanoBRET Fold Response: 0.91
GRM3; GRM3, 0.1μM tracer
  NanoBRET Fold Response: 0.93
GRM3; GRM3, 1μM tracer
  NanoBRET Fold Response: 1.07

## O=C(CCc1ccc2n1[B-](F)(F)[N+]1=C(c3ccc[nH]3)C=CC1=C2)NCc1ccc(C(=O)NCCOCCC(=O)N[C@@H]2CC[C@@]3(O)[C@H]4Cc5ccc(O)c6c5[C@@]3(CCN4CC3CC3)[C@H]2O6)cc1 [Naltrexone-3-NB590]
CCR6; CCR6, tracer 0.1μM
  NanoBRET Fold Response: 0.94
CCR6; CCR6, tracer 1μM
  NanoBRET Fold Response: 1.24
GRM3; GRM3, tracer 0.1μM
  NanoBRET Fold Response: 1.15
GRM3; GRM3, tracer 1μM
  NanoBRET Fold Response: 0.81

## CC(C)N(CC[C@H](c1ccccc1)c1cc(CCNC(=O)CCOCCOCCOCCOCCNC(=O)CCc2ccc3n2[B-](F)(F)[N+]2=C(c4ccc[nH]4)C=CC2=C3)ccc1O)C(C)C [Tolterodine-2-NB590]
CCR6; CCR6, tracer 0.1μM
  NanoBRET Fold Response: 1.07
CCR6; CCR6, tracer 1μM
  NanoBRET Fold Response: 1.01
GRM3; GRM3, tracer 0.1μM
  NanoBRET Fold Response: 0.82
GRM3; GRM3, tracer 1μM
  NanoBRET Fold Response: 1.09

## Cc1nc2n(c(=O)c1CCN1CCC(c3noc4cc(F)ccc34)CC1)CCCC2OC(=O)NCCOCCOCCOCCOCCNC(=O)CCc1ccc2n1[B-](F)(F)[N+]1=C(c3ccc[nH]3)C=CC1=C2 (centres unmarked) [Risperidone-2-NB590]
CCR6; CCR6, tracer 0.1μM
  NanoBRET Fold Response: 1.07
CCR6; CCR6, tracer 1μM
  NanoBRET Fold Response: 0.91
GRM3; GRM3, tracer 0.1μM
  NanoBRET Fold Response: 1.07
GRM3; GRM3, tracer 1μM
  NanoBRET Fold Response: 1.07

## O=C(CCOCCOCCOCCOCCNC(=O)CCc1ccc2n1[B-](F)(F)[N+]1=C(c3ccc[nH]3)C=CC1=C2)NCCCN1CCN(C2=Nc3cc(Cl)ccc3Nc3ccccc32)CC1 [Clozapine-a-2-NB590]
CCR6; CCR6, 0.1μM tracer
  NanoBRET Fold Response: 1.05
CCR6; CCR6, 1μM tracer
  NanoBRET Fold Response: 0.97
GRM3; GRM3, 0.1μM tracer
  NanoBRET Fold Response: 0.97
GRM3; GRM3, 1μM tracer
  NanoBRET Fold Response: 0.96

## COc1ccc2[nH]c(-c3ccc(CNC(=O)CCOCCOCCOCCOCCNC(=O)CCc4ccc5n4[B-](F)(F)[N+]4=C(c6ccc[nH]6)C=CC4=C5)cc3)c(CCNC(C)=O)c2n1 [AzomelatoninICO9-2-NB590]
CCR6; 0.1μM tracer
  NanoBRET Fold Response: 0.85
CCR6; 1μM tracer
  NanoBRET Fold Response: 1.20
GRM3; 0.1μM tracer
  NanoBRET Fold Response: 1.03
GRM3; 1μM tracer
  NanoBRET Fold Response: 0.85

## CN1CCN(C2=Nc3cc(Cl)ccc3Nc3ccc(CNC(=O)CCOCCOCCOCCOCCNC(=O)CCc4ccc5n4[B-](F)(F)[N+]4=C(c6ccc[nH]6)C=CC4=C5)cc32)CC1 [Clozapine-b-2-NB590]
CCR6; CCR6, 0.1μM tracer
  NanoBRET Fold Response: 1.03
CCR6; CCR6, 1μM tracer
  NanoBRET Fold Response: 0.97
GRM3; GRM3, 0.1μM tracer
  NanoBRET Fold Response: 0.99

## COc1ccccc1N1CCN(CCCCN2C(=O)c3ccc(CNC(=O)CCOCCNC(=O)c4ccc(CNC(=O)CCc5ccc6n5[B-](F)(F)[N+]5=C(c7ccc[nH]7)C=CC5=C6)cc4)cc3C2=O)CC1 [NAN-190-3-NB590]
CCR6; CCR6, tracer 0.1μM
  NanoBRET Fold Response: 1.19
CCR6; CCR6, tracer 1μM
  NanoBRET Fold Response: 0.93
GRM3; GRM3, tracer 0.1μM
  NanoBRET Fold Response: 0.98
GRM3; GRM3, tracer 1μM
  NanoBRET Fold Response: 1.25

## N#CN=C(NCCCOc1cccc(CN2CCCCC2)c1)NCCNC(=O)CCOCCOCCOCCOCCNC(=O)CCc1ccc2n1[B-](F)(F)[N+]1=C(c3ccc[nH]3)C=CC1=C2 [Aminopotentidine-2-NB590]
CCR6; CCR6, tracer 0.1μM
  NanoBRET Fold Response: 0.96
CCR6; CCR6, tracer 1μM
  NanoBRET Fold Response: 1.00
GRM3; GRM3, tracer 0.1μM
  NanoBRET Fold Response: 1.01
GRM3; GRM3, tracer 1μM
  NanoBRET Fold Response: 1.03

## CN(C)CCC=C1c2ccccc2CCc2ccc(C(=O)NCCNC(=O)CCOCCOCCOCCOCCNC(=O)CCc3ccc4n3[B-](F)(F)[N+]3=C(c5ccc[nH]5)C=CC3=C4)cc21 [Amitriptyline-b-2-NB590]
CCR6; tracer at 0.1μM, listed as amitriptyline-b-2-NB590
  NanoBRET Fold Response: 1.01
CCR6; tracer at 1μM, listed as amitriptyline-b-2-NB590
  NanoBRET Fold Response: 1.01
GRM3; GRM3, tracer 0.1μM
  NanoBRET Fold Response: 1.00
GRM3; GRM3, tracer 1μM
  NanoBRET Fold Response: 1.03

## CN(CCC=C1c2ccccc2CCc2ccccc21)C(=O)CCOCCOCCOCCOCCNC(=O)CCc1ccc2n1[B-](F)(F)[N+]1=C(c3ccc[nH]3)C=CC1=C2 [Amitriptyline-e-2-NB590]
CCR6; tracer at 1μM
  NanoBRET Fold Response: 1.00

## CN(C)CCC=C1c2ccccc2CCc2ccc(C(=O)NCCNC(=O)CCOCCOCCOCCOCCNC(=O)CCc3ccc4n3[B-](F)(F)[N+]3=C(c5ccc[nH]5)C=CC3=C4)cc21 [Amitriptyline-a-2-NB590]
CCR6; tracer at 0.1μM
  NanoBRET Fold Response: 0.96
CCR6; tracer at 1μM
  NanoBRET Fold Response: 0.94

Reference: PMC8151276, “An Integrated Approach toward NanoBRET Tracers for Analysis of GPCR Ligand Engagement” (Molecules, 2021)
